From ChEMBL document CHEMBL4680161, “Design and synthesis of α-naphthoflavone chimera derivatives able to eliminate cytochrome P450 (CYP)1B1-mediated drug resistance via targeted CYP1B1 degradation” (Eur J Med Chem, 2020)

Tests used:
Homo sapiens = organism: Homo sapiens; assay: Selectivity ratio IC50 for inhibition of recombinant human CYP1A2 to inhibition of recombinant human CYP1B1
Cytochrome P450 1B1 = target: T1, Cytochrome P450 1B1 (Homo sapiens, UniProt Q16678); assay: Inhibition of recombinant human CYP1B1 expressed in baculovirus infected insect cells using 7-ethoxyresorufin as substrate preincubated for 5 mins followed by NADPH addition and measured after 15 mins by EROD assay
T1 sequence (Q16678 whole entry): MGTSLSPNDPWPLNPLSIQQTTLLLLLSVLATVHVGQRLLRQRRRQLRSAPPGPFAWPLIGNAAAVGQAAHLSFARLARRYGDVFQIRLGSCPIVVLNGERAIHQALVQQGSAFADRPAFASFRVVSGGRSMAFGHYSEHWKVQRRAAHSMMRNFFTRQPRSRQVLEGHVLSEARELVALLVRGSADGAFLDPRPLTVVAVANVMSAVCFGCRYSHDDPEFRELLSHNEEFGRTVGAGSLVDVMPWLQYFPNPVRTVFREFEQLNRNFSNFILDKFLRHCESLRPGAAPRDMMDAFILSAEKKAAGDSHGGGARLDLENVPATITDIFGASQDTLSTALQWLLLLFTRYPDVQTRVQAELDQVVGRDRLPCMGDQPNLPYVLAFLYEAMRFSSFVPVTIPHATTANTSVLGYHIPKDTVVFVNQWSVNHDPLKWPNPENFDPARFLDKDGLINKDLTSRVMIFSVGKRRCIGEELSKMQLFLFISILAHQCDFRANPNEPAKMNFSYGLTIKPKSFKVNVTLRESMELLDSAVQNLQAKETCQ

Cytochrome P450 1A2 = target: T2, Cytochrome P450 1A2 (Homo sapiens, UniProt P05177); assay: Inhibition of recombinant human CYP1A2 expressed in baculovirus infected insect cells using 7-ethoxyresorufin as substrate preincubated for 5 mins followed by NADPH addition and measured after 35 mins by EROD assay; type: ADME
T2 sequence (P05177 whole entry): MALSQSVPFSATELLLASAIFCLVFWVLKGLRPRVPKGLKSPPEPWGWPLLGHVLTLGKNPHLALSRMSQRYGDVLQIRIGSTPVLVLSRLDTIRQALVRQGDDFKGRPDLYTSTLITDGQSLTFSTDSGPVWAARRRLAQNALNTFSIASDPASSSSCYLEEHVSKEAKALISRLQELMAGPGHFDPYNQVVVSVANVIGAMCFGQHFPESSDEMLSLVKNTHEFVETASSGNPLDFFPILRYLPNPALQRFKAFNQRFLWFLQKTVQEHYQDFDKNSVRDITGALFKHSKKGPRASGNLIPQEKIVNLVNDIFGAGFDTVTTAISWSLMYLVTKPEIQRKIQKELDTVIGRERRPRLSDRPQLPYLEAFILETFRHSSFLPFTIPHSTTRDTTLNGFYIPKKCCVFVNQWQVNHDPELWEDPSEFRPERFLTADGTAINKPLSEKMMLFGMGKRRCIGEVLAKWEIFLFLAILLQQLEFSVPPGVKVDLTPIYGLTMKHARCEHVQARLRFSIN

[1] = target: von Hippel-Lindau disease tumor suppressor/Cytochrome P450 1B1 (Homo sapiens, UniProt Q16678+P40337); assay: Protac activity at E3 ubiquitin ligase/CYP1B1 (unknown origin) expressed in human DU145 cells assessed as induction of CYP1B1 degradation by immunoblotting analysis; type: cell-based; settings: du-145
von Hippel-Lindau disease tumor suppressor/Cytochrome P450 1B1, sequence (P40337 whole entry, one chain of several): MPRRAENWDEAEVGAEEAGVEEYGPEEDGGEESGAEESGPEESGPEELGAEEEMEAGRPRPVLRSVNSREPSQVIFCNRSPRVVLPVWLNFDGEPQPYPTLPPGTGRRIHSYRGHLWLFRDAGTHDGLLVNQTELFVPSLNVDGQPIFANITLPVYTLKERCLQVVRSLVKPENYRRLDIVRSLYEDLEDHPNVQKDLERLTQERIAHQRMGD

DU-145 [2] = assay: Cytotoxicity against human DU-145 cells over expressing CYP1B1 assessed as reduction in cell viability after 48 hrs by MTT assay; type: functional, cell-based; settings: DU-145, 48 h
DU-145 [3] = assay: Cytotoxicity against human DU-145 cells assessed as reduction in cell viability after 48 hrs by MTT assay; type: functional, cell-based; settings: DU-145, 48 h
[4] = Selectivity ratio of IC50 for cytotoxicity against human DU-145 cells over expressing CYP1B1 to cytotoxicity against human DU-145 cells; type: functional

| Compound | Ratio IC50 (Homo sapiens) | IC50 (Cytochrome P450 1B1) [µM] | IC50 (Cytochrome P450 1A2) [µM] | Activity [1] | IC50 (DU-145 [2]) [µM] | IC50 (DU-145 [3]) [µM] | Ratio IC50 [4] |
| --- | --- | --- | --- | --- | --- | --- | --- |
| COc1ccc(OC)c2c1c(OC)cc1c(=O)cc(-c3ccccc3)oc12 | 18.4 | 0.0014 | 0.0258 |  |  |  |  |
| COc1ccc(OC)c2c1c(OC)cc1c(=O)cc(-c3ccc(-c4cn(CCCCCCCCOc5cccc6c5C(=O)N(C5CCC(=O)NC5=O)C6=O)nn4)cc3)oc12 (configuration not stated) | 44.8 | 0.166 | 7.46 | Not Active |  |  |  |
| COc1ccc(OC)c2c1c(OC)cc1c(=O)cc(-c3ccc(Cl)cc3)oc12 | 62 | 0.0006 | 0.0372 |  |  |  |  |
| [N-]=[N+]=NCCCCCCOc1cccc2c1C(=O)N(C1CCC(=O)NC1=O)C2=O (configuration not stated) |  | > 10 | > 10 |  |  |  |  |
| COc1ccc(OC)c2c1c(OC)cc1c(=O)cc(-c3ccc(-c4c[nH]nn4)cc3)oc12 | 120 | 0.0004 | 0.0478 |  |  |  |  |
| C#Cc1ccc(-c2cc(=O)c3cc(OC)c4c(OC)ccc(OC)c4c3o2)cc1 | 422 | 0.0021 | 0.885 | Not Active |  |  |  |
| [N-]=[N+]=NCCCCCCCCOc1cccc2c1C(=O)N(C1CCC(=O)NC1=O)C2=O (configuration not stated) |  | > 10 | > 10 | Not Active |  |  |  |
| COc1ccc(OC)c2c1c(OC)cc1c(=O)cc(-c3ccc(-c4cn(CCOc5cccc6c5C(=O)N(C5CCC(=O)NC5=O)C6=O)nn4)cc3)oc12 (configuration not stated) | 89.2 | 0.101 | 9.03 | Active |  |  |  |
| CC(=O)O[C@@]12CO[C@@H]1C[C@H](O)[C@@]1(C)C(=O)[C@H](O)C3=C(C)[C@@H](OC(=O)[C@H](O)[C@@H](NC(=O)OC(C)(C)C)c4ccccc4)C[C@@](O)([C@@H](OC(=O)c4ccccc4)[C@H]21)C3(C)C [DOCETAXEL ANHYDROUS] |  |  |  |  | 0.0433 | 0.00495 | 9 |
| [N-]=[N+]=NCCCCCOc1cccc2c1C(=O)N(C1CCC(=O)NC1=O)C2=O (configuration not stated) |  | > 10 | > 10 | Not Active |  |  |  |
| [N-]=[N+]=NCCOc1cccc2c1C(=O)N(C1CCC(=O)NC1=O)C2=O (configuration not stated) |  | > 10 | > 10 |  |  |  |  |
| COc1ccc(OC)c2c1c(OC)cc1c(=O)cc(-c3ccc(-c4cn(CCCCCOc5cccc6c5C(=O)N(C5CCC(=O)NC5=O)C6=O)nn4)cc3)oc12 (configuration not stated) | 56.1 | 0.153 | 8.57 | Active |  |  |  |
| COc1ccc(OC)c2c1c(OC)cc1c(=O)cc(-c3ccc(-c4cn(CCCCCCOc5cccc6c5C(=O)N(C5CCC(=O)NC5=O)C6=O)nn4)cc3)oc12 (configuration not stated) | 104 | 0.0951 | 9.84 | Dose-dependent effect and Tde |  |  |  |
